Data: US20170112861A1, “DRUG DELIVERY ENHANCER COMPRISING SUBSTANCE FOR ACTIVATING LYSOPHOSPHOLIPID RECEPTORS” (Osaka University, priority 2014, published 2017)

How the values were obtained:
[1] = system: tumor blood vessels of LLC cell tumors; assay: Structural changes in tumor blood vessels after S1P administration (anti-CD31 immunostaining); type: in vivo; settings: LLC tumor-bearing mice, S1P 0.3 mg/kg tail vein once daily for three days, 24 hours after final administration
Description: LLC cells were subcutaneously inoculated into C57BL/6 […] mice aged 8 weeks (females, SLC, Inc.) in the same manner as in Example 1. S1P (Avanti Polar Lipids, Inc.) was dissolved in PBS at 10 mM and the solution was stored at -30° C. as a stock solution. Before use, the stock solution was thawed and homogenized with an ultrasonic cleaner (SND Co., Ltd.) for 1 minute. The solution was diluted in PBS before administration so that the concentration of S1P was 0.3 mg/kg in 100 μL PBS. The prepared solution was used for S1P administration. Mice on day 9 post-inoculation of LLC cells (individuals with a tumor volume of 60 to 80 mm^3) were subjected to the experiment. The mice were divided into two groups: control group and S1P group (n=3). From the day of grouping, S1P was administered to the tail vein of the S1P group mice at a dose of 0.3 mg/kg in 100 μL PBS once daily for consecutive three days. To the control group mice, PBS (100 μL) was administered instead of S1P. At 24 hours after the final administration, the tumors were harvested from the mice, and the specimens of tumor blood vessels were prepared in the same manner as in Example 1. The specimens were observed and photographed under a confocal laser microscope (Leica).

[2] = system: Mouse pancreatic vascular endothelial cell line (MS-1); assay: In vitro barrier function of endothelial cell-cell junctions (ECIS-Zθ, resistance between cells Rb); type: cell-based; settings: MS-1 cells, 10 μM
Description: In vitro barrier function of the cell-cell junctions of vascular endothelial cells in the presence of LPA or VPC 31144 (S) was analyzed using a real-time cell ECIS-Zθ analyzer (Applied Biophysics).
LPA and VPC 31144 (S) were each dissolved in 50% ethanol as a 10 mM LPA stock solution and stored at −30° C. Before use, the LPA stock solution was thawed and homogenized with an ultrasonic cleaner (SND Co., Ltd.) for 1 minute. The solution was diluted in a serum-free culture medium supplemented with 0.1% BSA to a concentration of 10 μM.
Mouse pancreatic vascular endothelial cell line (MS-1) was used. The cells were suspended in DMEM (Sigma) containing 5% FBS. The cell suspension was seeded on a well plate with electrodes (8W10E+, 8 wells) specially designed for the analyzer at a density of 1×10^5 cells in 400 μL per well, and the cells were cultured overnight in an incubator to confluence. The medium was replaced by serum-free culture medium containing 0.1% BSA, and the cells were incubated for 4 hours. The medium was replaced by culture medium (serum-free culture medium containing 0.1% BSA) containing 10 μM LPA or VPC 31144 (S). The medium of the control cultures was replaced by serum-free culture medium containing 0.1% BSA. After replacement of the medium, resistance between cells (Rb) was measured in real time to evaluate the barrier function.

Structure (SMILES) | formation of a network of tumor blood vessels [1] | speed of barrier function increase ([2]; immediately after addition, compared with LPA) | electric resistance (Rb), barrier function in endothelial cells ([2]; serum-free medium with 0.1% BSA, vs control)
CCCCCCCCCCCCC/C=C/[C@@H](O)[C@@H](N)COP(=O)(O)O [S1P, sphingosine-1-phosphate] | the formation of a network of tumor blood vessels was induced | – | –
CCCCCCCC/C=C\CCCCCCCC(=O)N[C@@H](CO)COP(=O)(O)O [VPC 31144, N-{(1S)-2-hydroxy-1-[(phosphonooxy)methyl]ethyl}(9Z) octadec-9-enamide] | – | more rapidly increased the barrier function immediately after the administration, as compared with addition of LPA | also increased the barrier function in endothelial cells
